In assay [1] the target is CMV-polymerase (Human cytomegalovirus (strain AD169) (HHV-5) (Human herpesvirus 5), UniProt P08546). Briefly: biochemical.
In assay [2] the test system is CMV. Briefly: microbe, parasite or virus in culture. The format is cell-based. To be noted: Human betaherpesvirus 5, 72 h, read-out: CMV-Luc Cellular EC50, NN-NHDF cells, MOI 1, 72 hrs.
The mark [3] stands for this setting: read-out: CMV-polymerase Biochemical IC50.
Where [4] appears, read: CMV-polymerase Biochemical IC50.

Where two headings read alike, the source gives them in different places.

The IC50 is the midpoint of a concentration-inhibition curve. For orientation: EC50 means the concentration giving half of the maximal effect. In the case of `COC1CN(CC(C)(C)S(=O)(=O)C2(CN3CCc4c(C(=O)NCc5ccc(C#N)cc5)nn(C)c4C3=O)CC2)C1` [Example 66, N-(4-Cyanobenzyl)-6-((1-((1-(3-methoxyazetidin-1-yl)-2-methylpropan-2-yl)sulfonyl)cyclopropyl)methyl)-1-methyl-7-oxo-4,5,6,7-tetrahydro-1H-pyrazolo[3,4-c]pyridine-3-carboxamide], the IC50 in assay [1] (setting [3]) is 2 nM. The EC50 in assay [2] is 88 nM.

As to `Cn1nc(C(=O)NCc2ccc(C#N)cc2)c2c1C(=O)N(CC1(S(=O)(=O)C(C)(C)CN3CC4(COC4)C3)CC1)CC2` [Example 67, N-(4-Cyanobenzyl)-1-methyl-6-((1-((2-methyl-1-(2-oxa-6-azaspiro[3.3]heptan-6-yl)propan-2-yl)sulfonyl)cyclopropyl)methyl)-7-oxo-4,5,6,7-tetrahydro-1H-pyrazolo[3,4-c]pyridine-3-carboxamide], the IC50 in assay [1] (setting [3]) came to 2 nM. For the same compound, the EC50 in assay [2] is 82 nM.

With `Cn1nc(C(=O)NCc2ccc(C#N)cc2)c2c1C(=O)N(CC1(S(=O)(=O)C(C)(C)CN3CCC(O)C3)CC1)CC2` (stereo not drawn) [Example 68, N-(4-Cyanobenzyl)-6-((1-((1-(3-hydroxypyrrolidin-1-yl)-2-methylpropan-2-yl)sulfonyl)cyclopropyl)methyl)-1-methyl-7-oxo-4,5,6,7-tetrahydro-1H-pyrazolo[3,4-c]pyridine-3-carboxamide], in assay [1] (setting [3]), the IC50 worked out at 1 nM. In assay [2], the EC50 came out at 115 nM.

Regarding `Cn1nc(C(=O)NCc2ccc(C#N)cc2)c2c1C(=O)N(CC1(S(=O)(=O)C(C)(C)CNCCO)CC1)CC2` [Example 69, N-(4-Cyanobenzyl)-6-((1-((1-((2-hydroxyethyl)amino)-2-methylpropan-2-yl)sulfonyl)cyclopropyl)methyl)-1-methyl-7-ox0-4,5,6,7-tetrahydro-1H-pyrazolo[3,4-c]pyridine-3-carboxamide], the IC50 in assay [1] (setting [3]) was determined as 1 nM. Besides, the EC50 in assay [2] worked out at 57 nM.

With `Cn1nc(C(=O)NCc2ccc(C#N)cc2)c2c1C(=O)N(CC1(S(=O)(=O)C(C)(C)CN)CC1)CC2` [Example 70, 6-((1-((1-Amino-2-methylpropan-2-yl)sulfonyl)cyclopropyl)methyl)-N-(4-cyanobenzyl)-1-methyl-7-oxo-4,5,6,7-tetrahydro-1H-pyrazolo[3,4-c]pyridine-3-carboxamide], in assay [1] (setting [4]), the IC50 was 3 nM. For the same compound, the EC50 in assay [2] amounted to 61 nM.

In the case of `COC(=O)NCC(C)(C)S(=O)(=O)C1(CN2CCc3c(C(=O)NCc4ccc(C#N)cc4)nn(C)c3C2=O)CC1` [Example 73, Methyl (2-((1-((3-((4-cyanobenzyl)carbamoyl)-1-methyl-7-oxo-1,4,5,7-tetrahydro-6H-pyrazolo[3,4-c]pyridin-6-yl)methyl)cyclopropyl)sulfonyl)-2-methylpropyl)carbamate], the IC50 in assay [1] (setting [3]) turned out to be 2 nM. Further, the concentration giving a half-maximal response (EC50) in assay [2] came out at 53 nM.

Consider `Cn1nc(C(=O)NCc2ccc(C#N)cc2)c2c1C(=O)N(CC1(S(=O)(=O)C(C)(C)CNC(=O)CN)CC1)CC2` [Example 74, 6-((1-((1-(2-Aminoacetamido)-2-methylpropan-2-yl)sulfonyl)cyclopropyl)methyl)-N-(4-cyanobenzyl)-1-methyl-7-oxo-4,5,6,7-tetrahydro-1H-pyrazolo[3,4-c]pyridine-3-carboxamide], for which the IC50 in assay [1] (setting [3]) was determined as 3 nM. For the same compound, the EC50 in assay [2] worked out at 148 nM.

On to `C[C@@H](N)C(=O)NCC(C)(C)S(=O)(=O)C1(CN2CCc3c(C(=O)NCc4ccc(C#N)cc4)nn(C)c3C2=O)CC1` [Example 75, (R)-6-((1-((1-(2-Aminopropanamido)-2-methylpropan-2-yl)sulfonyl)cyclopropyl)methyl)-N-(4-cyanobenzyl)-1-methyl-7-oxo-4,5,6,7-tetrahydro-1H-pyrazolo[3,4-c]pyridine-3-carboxamide], for which, in assay [1] (setting [3]), the IC50 was 7 nM. Moreover, the EC50 in assay [2] was 47 nM.

Regarding `C[C@H](N)C(=O)NCC(C)(C)S(=O)(=O)C1(CN2CCc3c(C(=O)NCc4ccc(C#N)cc4)nn(C)c3C2=O)CC1` [Example 76, (S)-6-((1-((1-(2-Aminopropanamido)-2-methylpropan-2-yl)sulfonyl)cyclopropyl)methyl)-N-(4-cyanobenzyl)-1-methyl-7-oxo-4,5,6,7-tetrahydro-1H-pyrazolo[3,4-c]pyridine-3-carboxamide], the IC50 in assay [1] (setting [3]) was 10 nM. In assay [2], the EC50 was found to be 84 nM.

For `Cn1nc(C(=O)NCc2ccc(C#N)cc2)c2c1C(=O)N(CC1(S(=O)(=O)C(C)(C)CNC(=O)C(C)(C)N)CC1)CC2` [Example 77, 6-((1-((1-(2-Amino-2-methylpropanamido)-2-methylpropan-2-yl)sulfonyl)cyclopropyl)methyl)-N-(4-cyanobenzyl)-1-methyl-7-oxo-4,5,6,7-tetrahydro-1H-pyrazolo[3,4-c]pyridine-3-carboxamide], the IC50 in assay [1] (setting [3]) is 12 nM. In assay [2], the EC50 is 115 nM.

Take `CN(C)CC(=O)NCC(C)(C)S(=O)(=O)C1(CN2CCc3c(C(=O)NCc4ccc(C#N)cc4)nn(C)c3C2=O)CC1` [Example 78, N-(4-Cyanobenzyl)-6-((1-((1-(2-(dimethylamino)acetamido)-2-methylpropan-2-yl)sulfonyl)cyclopropyl)methyl)-1-methyl-7-oxo-4,5,6,7-tetrahydro-1H-pyrazolo[3,4-c]pyridine-3-carboxamide]: in assay [1] (setting [3]), the IC50 is 26 nM. Besides, the half-maximal effective concentration (EC50) in assay [2] came to 112 nM.

The compound `Cn1nc(C(=O)NCc2ccc(C#N)cc2)c2c1C(=O)N(CC1(S(=O)(=O)C(C)(C)COC(F)(F)CO)CC1)CC2` [Example 84, N-(4-cyanobenzyl)-6-((1-((1-(1,1-difluoro-2-hydroxyethoxy)-2-methylpropan-2-yl)sulfonyl)cyclopropyl)methyl)-1-methyl-7-oxo-4,5,6,7-tetrahydro-1H-pyrazolo[3,4-c]pyridine-3-carboxamide] yielded an IC50 in assay [1] (setting [4]) of 4 nM. In addition, in assay [2], the EC50 was found to be 51 nM.

With `Cn1nc(C(=O)NCc2ccc(C#N)cc2)c2c1C(=O)N(CC1(S(=O)(=O)C(C)(C)COC(F)(F)CN)CC1)CC2` [Example 85, 6-((1-((1-(2-Amino-1,1-difluoroethoxy)-2-methylpropan-2-yl)sulfonyl)cyclopropyl)methyl)-N-(4-cyanobenzyl)-1-methyl-7-oxo-4,5,6,7-tetrahydro-1H-pyrazolo[3,4-c]pyridine-3-carboxamide], in assay [1] (setting [4]), half-maximal inhibition (IC50) was put at 3 nM. Moreover, the EC50 in assay [2] amounted to 50 nM.

Turning to `Cn1nc(C(=O)NCc2ccc(C#N)cc2)c2c1C(=O)N(CC1(S(=O)(=O)C(C)(C)COCC(C)(C)O)CC1)CC2` [Example 86, N-(4-Cyanobenzyl)-6-((1-((1-(2-hydroxy-2-methylpropoxy)-2-methylpropan-2-yl)sulfonyl)cyclopropyl)methyl)-1-methyl-7-oxo-4,5,6,7-tetrahydro-1H-pyrazolo[3,4-c]pyridine-3-carboxamide], the midpoint of inhibition in assay [1] (setting [4]), the IC50, lay at 18 nM. Moreover, in assay [2], the EC50 came to 145 nM.

Consider `Cn1nc(C(=O)NCc2ccc(Cl)cc2)c2c1C(=O)N(CC1(S(=O)(=O)C(C)(C)COCCO)CC1)CC2` [Example 88, N-(4-Chlorobenzyl)-6-((1-((1-(2-hydroxyethoxy)-2-methylpropan-2-yl)sulfonyl)cyclopropyl)methyl)-1-methyl-7-oxo-4,5,6,7-tetrahydro-1H-pyrazolo[3,4-c]pyridine-3-carboxamide], for which the IC50 in assay [1] (setting [4]) worked out at 2 nM. Besides, in assay [2], the EC50 came to 36 nM.

On to `Cn1nc(C(=O)NCc2ccc(C#N)cc2)c2c1C(=O)N(CC1(S(=O)(=O)C3(COCCN)CC3)CC1)CC2` [Example 96, 6-((1-((1-((2-aminoethoxy)methyl)cyclopropyl)sulfonyl)cyclopropyl)methyl)-N-(4-cyanobenzyl)-1-methyl-7-oxo-4,5,6,7-tetrahydro-1H-pyrazolo[3,4-c]pyridine-3-carboxamide], for which, in assay [1] (setting [3]), the IC50 was determined as 1 nM. For the same compound, the half-maximal effective concentration (EC50) in assay [2] was 26 nM.

`CNCCOCC(C)(C)S(=O)(=O)C1(CN2CCc3c(C(=O)NCc4ccc(C#N)cc4)nn(C)c3C2=O)CC1` [Example 101, N-(4-Cyanobenzyl)-1-methyl-6-((1-((2-methyl-1-(2-(methylamino)ethoxy)propan-2-yl)sulfonyl)cyclopropyl)methyl)-7-oxo-4,5,6,7-tetrahydro-1H-pyrazolo[3,4-c]pyridine-3-carboxamide] returned an IC50 in assay [1] (setting [4]) of 1 nM. In addition, the EC50 in assay [2] was found to be 9 nM.

Compound `Cn1nc(C(=O)NCc2ccc(C#N)cc2)c2c1C(=O)N(CC1(S(=O)(=O)C(C)(C)COC3CNC3)CC1)CC2` [Example 102, 6-((1-((1-(Azetidin-3-yloxy)-2-methylpropan-2-yl)sulfonyl)cyclopropyl)methyl)-N-(4-cyanobenzyl)-1-methyl-7-oxo-4,5,6,7-tetrahydro-1H-pyrazolo[3,4-c]pyridine-3-carboxamide] yielded an IC50 in assay [1] (setting [4]) of 5 nM. For the same compound, the EC50 in assay [2] came to 26 nM.

As to `Cn1nc(C(=O)NCc2ccc(C#N)cc2)c2c1C(=O)N(CC1(S(=O)(=O)C(C)(C)COCC(C)(C)N)CC1)CC2` [Example 103, 6-((1-((1-(2-Amino-2-methylpropoxy)-2-methylpropan-2-yl)sulfonyl)cyclopropyl)methyl)-N-(4-cyanobenzyl)-1-methyl-7-oxo-4,5,6,7-tetrahydro-1H-pyrazolo[3,4-c]pyridine-3-carboxamide], the IC50 in assay [1] (setting [4]) turned out to be 9 nM. Moreover, in assay [2], the concentration giving a half-maximal response (EC50) is 41 nM.

For the compound `CN(C)CCOCC(C)(C)S(=O)(=O)C1(CN2CCc3c(C(=O)NCc4ccc(C#N)cc4)nn(C)c3C2=O)CC1` [Example 104, N-(4-Cyanobenzyl)-6-((1-((1-(2-(dimethylamino)ethoxy)-2-methylpropan-2-yl)sulfonyl)cyclopropyl)methyl)-1-methyl-7-oxo-4,5,6,7-tetrahydro-1H-pyrazolo[3,4-c]pyridine-3-carboxamide], the IC50 in assay [1] (setting [3]) stood at 3 nM. For the same compound, in assay [2], the EC50 was determined as 21 nM.

For `CNC(=O)C(C)(C)S(=O)(=O)C1(CN2CCc3c(C(=O)NCc4ccc(Cl)cc4)nn(C)c3C2=O)CC1` [Example 110, N-(4-Chlorobenzyl)-1-methyl-6-((1-((2-methyl-1-(methylamino)-1-oxopropan-2-yl)sulfonyl)cyclopropyl)methyl)-7-oxo-4,5,6,7-tetrahydro-1H-pyrazolo[3,4-c]pyridine-3-carboxamide], the IC50 in assay [1] (setting [4]) was 5 nM. In addition, in assay [2], the EC50 was found to be 218 nM.

These data come from patent US12338220B2, “Antiviral pyrazolopiridinone compounds” (Novartis AG, priority 2019, dated 2025).
